Measurements as given in the RepoRT retention time repository.

assay: Waters ACQUITY UPLC BEH C18, 50 × 2.1 mm, 1.7 µm, 30 °C, 0.3 mL/min, estimated dead time 0.37 min; A: water + 0.3% formic acid; B: acetonitrile; gradient (min/%B) 0.5/5 3.5/20 5.5/25 7/57 8/90; details: stereoisomer not certain

Row | SMILES | LC retention time [min]
1 | CCCC(Cc1ccccc1)N1CCCC1 (stereo unspecified) | 5.09
2 | NC(=O)c1ncn(C2OC(CO)C(O)C2O)c1N (stereo unspecified) | 0.58
3 | CC12C=CC(=O)C=C1CCC1C2C(=O)CC2(C)C1CCC2(O)C(=O)CO (stereo unspecified) | 6.12
4 | CC12Cc3cn[nH]c3C(O)C1CCC1C2CCC2(C)C1CCC2(C)O (stereo unspecified) | 6.7
5 | CNC(C)Cc1ccc2c(c1)OCO2 (stereo unspecified) | 2.73
6 | CN1CCC23c4c5ccc(O)c4OC2C(=O)CCC3C1C5 (stereo unspecified) | 1.48
7 | CC1CC2C(C(O)CC3(C)C2CCC3(O)C(=O)CO)C2(C)C=CC(=O)C=C12 (stereo unspecified) | 6.78
8 | CC(C)(C)NCC(O)COc1nsnc1N1CCOCC1 (stereo unspecified) | 3.62
9 | CC(=O)Oc1c(C)cc(OCC(O)CNC(C)C)c(C)c1C (stereo unspecified) | 5.62
10 | CC=CC(=O)N(CC)C(CC)C(=O)N(C)C (stereo unspecified) | 4.55
11 | COc1ccc2c3c1OC1C(=O)CCC4(O)C(C2)N(C)CCC314 (stereo unspecified) | 2.47
12 | O=C(O)CS(=O)C(c1ccccc1)c1ccccc1 (stereo unspecified) | 6.69
13 | Cc1ccc(CC(C)N)cc1 (stereo unspecified) | 3.45
14 | CN1CCC23c4c5ccc(O)c4OC2C(=O)CCC3(O)C1C5 (stereo unspecified) | 1.21
15 | NC(=O)CN1CC(c2ccccc2)CC1=O (stereo unspecified) | 3.86
16 | CCNCC(O)c1cccc(O)c1 (stereo unspecified) | 0.92
17 | CNC(C)CC1CCCCC1 (stereo unspecified) | 4.4
18 | Cc1cccc(Nc2ccncc2S(=O)(=O)NC(=O)NC(C)C)c1 | 6.02
19 | CCC(C)CC(C)N (stereo unspecified) | 2.87
20 | CC(N)Cc1ccc(O)cc1 (stereo unspecified) | 1.17
21 | CCOC(=O)C1(c2ccccc2)CCN(C)CC1 | 4.43

Row | SMILES | LC retention time [min]
22 | CC(C)NCC(O)COc1cccc2ccccc12 (stereo unspecified) | 5.78
23 | CCCCNc1cc(C(=O)O)cc(S(N)(=O)=O)c1Oc1ccccc1 | 7.49
24 | C#CC1(O)CCC2C3CCC4=CC(=O)CCC4=C3C=CC21CC (stereo unspecified) | 7.47
25 | CC12CCC(=O)C=C1CCC1C2C(=O)CC2(C)C1CCC2(O)C(=O)CO (stereo unspecified) | 6.31
26 | CC1(O)CCC2C3CCC4=CC(=O)CCC4=C3C=CC21C (stereo unspecified) | 7.12
27 | CCN(CC)C(=O)Nc1ccc(OCC(O)CNC(C)(C)C)c(C(C)=O)c1 (stereo unspecified) | 4.46
28 | CC(CCc1ccccc1)NCC(O)c1ccc(O)c(C(N)=O)c1 (stereo unspecified) | 5.1
29 | COc1ccc(CC(C)NCC(O)c2ccc(O)c(NC=O)c2)cc1 (stereo unspecified) | 3.94
30 | CC(=O)Nc1nnc(S(N)(=O)=O)s1 | 1.78
31 | NC(=O)CS(=O)C(c1ccccc1)c1ccccc1 (stereo unspecified) | 6.01
32 | CC(C)(C)NCC(O)COc1cccc2c1CCCC2=O (stereo unspecified) | 4
33 | O=C(CS(=O)C(c1ccccc1)c1ccccc1)NO (stereo unspecified) | 5.7
34 | CCC(=C(c1ccccc1)c1ccc(OCCN(C)C)cc1)c1ccccc1 | 7.76
35 | CC(C)NCC(O)COc1cccc2[nH]ccc12 (stereo unspecified) | 2.74
36 | CC(Cc1ccccc1)NCCC#N (stereo unspecified) | 2.77
37 | CC12C=CC(=O)C=C1CCC1C2C(O)CC2(C)C1CCC2(O)C(=O)CO (stereo unspecified) | 6.15
38 | CC(C)(C)NCC(O)COc1cccc2c1CCC(=O)N2 (stereo unspecified) | 2.65
39 | CCCCCC(C)N (stereo unspecified) | 3.17
40 | O=C(O)C(c1ccccc1)C1CCCCN1 (stereo unspecified) | 3.25
41 | CC(C)(C)NCC(O)c1cc(O)cc(O)c1 (stereo unspecified) | 1.44
42 | CCN(CC)C(=O)c1ccc(O)c(OC)c1 | 4.77

Row | SMILES | LC retention time [min]
43 | CCC1(O)CCC2C3CCC4=CC(=O)CCC4=C3C=CC21CC (stereo unspecified) | 7.79
44 | O=C(c1ccc(OCCN2CCCCC2)cc1)c1c(-c2ccc(O)cc2)sc2cc(O)ccc12 | 6.58
45 | C#CC1(O)CCC2C3C(C)CC4=C(CCC(=O)C4)C3CCC21C (stereo unspecified) | 7.51
46 | CC(N)Cc1ccccc1 (stereo unspecified) | 2.37
47 | CC(C)(C#N)c1cc(Cn2cncn2)cc(C(C)(C)C#N)c1 | 6.91
48 | CC(Cc1ccccc1)N(C)C (stereo unspecified) | 2.76
49 | CC(C(O)c1ccccc1)N(C)C (stereo unspecified) | 2.2
50 | CC(N)Cc1ccc2c(c1)OCO2 (stereo unspecified) | 2.5
51 | CC(Cc1ccccc1)[n+]1cc(N=C([O-])Nc2ccccc2)on1 (stereo unspecified) | 7.25
52 | COC12CCC3(CC1C(C)(O)C(C)(C)C)C1Cc4ccc(O)c5c4C3(CCN1CC1CC1)C2O5 (stereo unspecified) | 6.55
53 | CC(N)C(O)c1ccccc1 (stereo unspecified) | 1.7
54 | CCC1(c2ccc(N)cc2)CCC(=O)NC1=O (stereo unspecified) | 2.2
55 | C=CCc1ccccc1OCC(O)CNC(C)C (stereo unspecified) | 5.93
56 | CCCC1OC2CC3C4CCC5=CC(=O)C=CC5(C)C4C(O)CC3(C)C2(C(=O)CO)O1 (stereo unspecified) | 7.46
57 | CC(C)NCC(O)COc1ccc(CCOCC2CC2)cc1 (stereo unspecified) | 6.11
58 | COC(=O)CCc1ccc(OCC(O)CNC(C)C)cc1 (stereo unspecified) | 4.31
59 | CC12CCC(=O)C=C1CCC1C2C(O)CC2(C)C1CCC2(O)C(=O)CO (stereo unspecified) | 6.23
60 | CC(N)CCCC(C)(C)O (stereo unspecified) | 1.29
61 | COCCc1ccc(OCC(O)CNC(C)C)cc1 (stereo unspecified) | 3.81
